Results from patent US8563712B2, “Hydroxy-substituted gold(III) porphyrin complexes as histone deacetylase inhibitors” (The University of Hong Kong, priority 2009, dated 2013).

What was measured:
[1] = test system: MDA-MB-231 tumor xenograft; assay: Mammary MDA-MB-231 tumor growth in nude mice; assay type: in vivo
Procedure: Most of the animals remained in a tumor-free status until day 25, at which recurrence of a tumor was observed.
MDA-MB-231 cells were inoculated into the mammary fat pad of nude mice as described in Methods. […] Tumor growth (A) and body weight (B) were monitored bi-weekly. C, Kaplan-Meier estimates of the survival curves were calculated and plotted. D, At the end of experiment, tumors were collected and weighed. # and *, P<0.05 versus PET control, n=4-6.

[2] = test system: MDA-MB-231; assay: Crystal violet anti-proliferative assay; assay type: cell-based, human
Procedure: (§1) Table 1). The presence of high concentrations of serum had no effects on the potencies of the drug. […] Similar results were observed when the drug exposure time was extended to 48 h. […] The antiproliferative activity of another gold(III) porphyrin complex ([Au^III(TPP)]Cl, gold-1a) in MDA-MB-231 cells was also tested. […] Apoptosis of MDA-MB-231 cells were evaluated by measuring DNA fragmentation.

[3] = test system: human breast carcinoma cells (BT474, MCF-7, T47D, MDA-MB-231, SKBR3); assay: Crystal violet assay, statements on the whole panel; assay type: cell-based; details: five breast carcinoma cell lines
Procedure: as §1

[4] = test system: T47D; assay: Crystal violet anti-proliferative assay; assay type: cell-based, human
Procedure: as §1

[5] = test system: SKBR3; assay: Crystal violet anti-proliferative assay; assay type: cell-based, human
Procedure: as §1

[6] = test system: BT474; assay: Crystal violet anti-proliferative assay; assay type: cell-based, human
Procedure: as §1

[7] = test system: MCF7; assay: Crystal violet anti-proliferative assay; assay type: cell-based, human
Procedure: as §1

[8] = test system: β-catenin; assay: β-catenin protein level, nuclear activity, phosphorylation and ubiquitination; assay type: cell-based, human; details: MDA-MB-231 cells
From the text: Aberrant activation of the Wnt/β-catenin signalling plays a key role in the development of many human cancer diseases. Intracellular accumulation of β-catenin protein has been observed in a large portion of human breast tumors. […] On the contrary, cisplatin had no influence on both the protein levels and nuclear activities of β-catenin. In the absence of a Wnt signal, β-catenin is phosphorylated by glycogen synthase kinase-3beta, which facilitates the subsequent ubiquitination and proteasome degradation.

[9] = test system: histone H4 acetylation; assay: Western blotting of global acetylated histone H4; assay type: cell-based, human; details: MDA-MB-231, six and 24 hours
[10] = test system: acetylated histone H4; assay: ChIP-PCR of acetylated histone H4 at promoter regions; assay type: cell-based, human; details: MDA-MB-231, 24 hours
Procedure: To further confirm these unexpected observations, ChIP-PCR was performed to quantify the acetylated histone H4 levels at the promoter regions of the above genes. […] Similar levels of acetylated histone H4 were only observed at 24 hours after treatment.
MDA-MB-231 cells were treated with different drugs for 24 hours. ChiP-PCR was performed for analyzing the levels of acetylated histone H4 at the promoter regions of CTNNB1, WIF1, WNT5B, WNT1, WISP1 and ESR1, using antibody recognizing histone H4 acetylated at lysines 5, 8, 12, and 16. Bar charts represented the quantitative results by real time PCR analysis after normalization against the input DNA. Representative agarose gel images were shown at the bottom. […] Equal protein loading was confirmed by Amido black staining. *, P<0.01 versus vehicle control, n=3.

[11] = intraductal 15 mg/kg, end of experiment

[Au^III(TPP)]Cl [gold-1a]
inhibition of breast tumor growth ([1]; sub-lethal concentrations): no inhibition | less effective than gold-2a (growth inhibition curves) ([2]; MDA-MB-231 cells, non-linear regression): ~1000 fold

N.N.[Cl][Pt][Cl] [cisplatin]
animals died ([1]; after two intraductal injections): ~40% | average tumor weights [1, 11]: 0.42 g | tumor weight decreased compared to control group [1, 11]: 34% | rates of tumor growth compared to gold-2a ([1]; intraductal, same dosage (15 mg/kg)): attenuated the rates of tumor growth to a much lesser degree | IC50 values higher when compared to gold-2a [3]: 100-3000 times | IC50 ([4]; 24 hours, 0.5% FBS): 66.5 ± 12.4 µM | IC50 ([4]; 24 hours, 10% FBS): 99.4 ± 5.71 µM | IC50 ([4]; 48 hours, 0.5% FBS): 7.76 ± 5.54 µM | IC50 ([4]; 48 hours, 10% FBS): 6.69 ± 3.14 µM | IC50 ([5]; 24 hours, 0.5% FBS): 65.9 ± 25.5 µM | IC50 ([5]; 24 hours, 10% FBS): 76.3 ± 33.8 µM | IC50 ([5]; 48 hours, 0.5% FBS): 33.9 ± 11 µM | IC50 ([5]; 48 hours, 10% FBS): 41 ± 7.91 µM | IC50 ([6]; 24 hours, 0.5% FBS): 49 ± 0.5 µM | IC50 ([6]; 24 hours, 10% FBS): 45.1 ± 8.2 µM | IC50 ([6]; 48 hours, 0.5% FBS): 1.6 ± 0.53 µM | IC50 ([6]; 48 hours, 10% FBS): 2.89 ± 0.9 µM | IC50 ([7]; 24 hours, 0.5% FBS): 14.3 ± 1.46 µM | IC50 ([7]; 24 hours, 10% FBS): 20.1 ± 4.92 µM | IC50 ([7]; 48 hours, 0.5% FBS): 10.1 ± 1.47 µM | IC50 ([7]; 48 hours, 10% FBS): 15.9 ± 2.33 µM | IC50 ([2]; 24 hours, 0.5% FBS): 7.37 ± 1.19 µM | IC50 ([2]; 24 hours, 10% FBS): 21 ± 11.2 µM | IC50 ([2]; 48 hours, 0.5% FBS): 6.52 ± 0.48 µM | IC50 ([2]; 48 hours, 10% FBS): 18.4 ± 3.42 µM | nuclear transcriptional activities of β-catenin [8]: no influence | protein levels of β-catenin ([8]; from four hours, 0.5% and 10% FBS): no influence

CC(/C=C/C(=O)NO)=C\[C@@H](C)C(=O)c1ccc(N(C)C)cc1 [TSA, trichostatin A]
global histone H4 acetylation [9]: significant induction | acetylated histone H4 at CTNNB1 promoter [10]: not significantly altered | acetylated histone H4 at ESR1 promoter [10]: increased | acetylated histone H4 at WIF1 promoter [10]: no significant effects | acetylated histone H4 at WISP1 promoter [10]: not significantly altered | acetylated histone H4 at WNT1 promoter [10]: no significant effects | acetylated histone H4 at WNT5B promoter [10]: no significant effects
